From patent EP1707622A1, “USE OF COMPOUNDS THAT REGULATE HDAC6 TUBULIN DEACETYLASE ACTIVITY IN THE PREPARATION OF PHARMACEUTICAL COMPOSITIONS, METHOD OF IDENTIFYING THE AFOR[…], SAID PHARMACEUTICAL COMPOUNDS AND APPLICATIONS THEREOF” (UNIVERSIDAD AUTONOMA DE MADRID CIUDAD UNIVERSITARIA …, priority 2004, dated 2005)
Where a SMILES comes first, the peptide text is derived from it. [ ]: non-standard residue; d: D form. Aoe = N[C@@H](CCCCCC(=O)[C@@H]1CO1)C(=O)O

Assays:
[1] = tested on: J77 cells; experiment: CD3 clustering in the central region of the immunological synapse; type: cell-based, human; conditions: for reversion of the prevention of CD3 clustering caused by HDAC6-GFP: J77 cells transfected with HDAC6-GFP, SEE-marked Raji cells, 30 minutes at 37°C, Figures 5A and B
[2] = tested on: J77 cells; experiment: Microtubule organizing centre (MTOC) translocation assay; type: cell-based, human; conditions: for restoration of MTOC translocation in cells transfected with HDAC6-GFP: J77 cells transfected with HDAC6-GFP, SEE-pulsed Raji cells, 3 µM TSA, Figures 7A and B; for MTOC translocation: Figure 7B
Experimental: A 1:1 ratio of Raji cells and T cells transfected with HDAC6 were placed in contact for 15 minutes at 37°C in RPMI medium. The cell conjugates were then gently resuspended and plated on PLL-coated cover slips for 15 more minutes as previously described (Sancho et al., 2002). The cell conjugates were then fixed, permeabilized and stained for α-tubulin for the purpose of observation by immunofluorescence microscopy. The MTOC was considered to be redirected when it was in close proximity with the T cell plasma membrane, between the cell nucleus and the contact area with the antigen-presenting cell. At least 200 cell conjugates were counted in each experiment.

[3] = target: T1, HDAC6 (Homo sapiens, UniProt Q9UBN7); conditions: CD4+ T lymphocytes and J77 cells pre-treated for 30 minutes (3µM TSA or 5 mM sodium butyrate), SEE-pulsed Raji cells; Figure 3B
T1 sequence (Q9UBN7 1-1215): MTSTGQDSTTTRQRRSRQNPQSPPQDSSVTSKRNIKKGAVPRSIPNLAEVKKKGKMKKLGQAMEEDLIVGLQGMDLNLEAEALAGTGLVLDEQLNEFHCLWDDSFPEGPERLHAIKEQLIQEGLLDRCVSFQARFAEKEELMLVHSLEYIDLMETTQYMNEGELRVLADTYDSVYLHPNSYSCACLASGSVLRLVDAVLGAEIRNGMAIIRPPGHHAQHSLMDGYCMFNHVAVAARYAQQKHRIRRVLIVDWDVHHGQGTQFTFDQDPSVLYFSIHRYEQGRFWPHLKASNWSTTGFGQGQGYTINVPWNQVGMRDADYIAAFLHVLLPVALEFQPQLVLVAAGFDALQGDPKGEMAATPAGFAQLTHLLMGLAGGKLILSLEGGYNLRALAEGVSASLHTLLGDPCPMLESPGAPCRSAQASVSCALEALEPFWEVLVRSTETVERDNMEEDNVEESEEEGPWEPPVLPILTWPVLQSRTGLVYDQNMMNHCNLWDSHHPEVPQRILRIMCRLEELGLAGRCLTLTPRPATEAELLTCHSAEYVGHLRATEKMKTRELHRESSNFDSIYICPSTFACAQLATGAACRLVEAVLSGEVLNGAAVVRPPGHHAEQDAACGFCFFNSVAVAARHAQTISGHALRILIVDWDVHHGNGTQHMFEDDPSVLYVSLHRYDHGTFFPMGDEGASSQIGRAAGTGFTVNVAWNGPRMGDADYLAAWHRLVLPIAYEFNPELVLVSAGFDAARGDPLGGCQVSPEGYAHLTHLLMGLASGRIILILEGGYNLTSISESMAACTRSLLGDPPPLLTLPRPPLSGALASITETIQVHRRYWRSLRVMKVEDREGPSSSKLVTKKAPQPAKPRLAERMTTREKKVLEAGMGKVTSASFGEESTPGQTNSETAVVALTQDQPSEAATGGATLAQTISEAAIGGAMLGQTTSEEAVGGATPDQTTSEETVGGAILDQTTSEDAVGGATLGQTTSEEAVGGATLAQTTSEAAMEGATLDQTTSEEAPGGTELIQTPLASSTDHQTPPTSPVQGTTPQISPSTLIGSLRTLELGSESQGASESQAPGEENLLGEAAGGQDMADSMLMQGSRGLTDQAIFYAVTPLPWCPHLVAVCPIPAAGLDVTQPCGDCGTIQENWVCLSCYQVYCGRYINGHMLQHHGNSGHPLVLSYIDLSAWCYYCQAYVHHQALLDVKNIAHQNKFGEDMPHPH

[4] = tested on: J77 cells; experiment: LFA-1 organization in the immunological synapse peripheral ring; type: cell-based, human; conditions: J77 cells with SEE-marked Raji cells, 30 minutes at 37°C; Figure 6 and data not shown
[5] = treatment effect in the quantitative analysis

SMILES | reversion of the prevention of CD3 clustering caused by HDAC6-GFP [1] | restoration of MTOC translocation in cells transfected with HDAC6-GFP [2] | MTOC translocation [2, 5] | acetylated tubulin staining in the contact site with antigen-presenting cells [3] | kinetics of CD3 clustering in the central region of the immunological synapse ([1]; J77 cells pre-treated, Raji cells marked with 1µg/ml SEE, different times, Figure 5C) | CD3 clustering ([1]; pretreated cells in contact with SEE-marked Raji cells, Figure 5B) | LFA-1 organization in the peripheral ring of the immunological synapse [4] | kinetics of MTOC translocation ([2]; cell conjugates between J77 and Raji cells, different times, Figure 7C) | MTOC translocation ([2]; peripheral blood CD4+ lymphocytes with SEE-pulsed Raji cells)
CCCC(=O)[O-].[Na+] [sodium butyrate] | not | not | did not affect | weak |  |  |  |  | 
CC(/C=C/C(=O)NO)=C\[C@@H](C)C(=O)c1ccc(N(C)C)cc1 [TSA, Trichostatin A] | reverted | restored normal translocation |  |  | accelerated | slight increase | well organized | accelerates | increases
O=C1N[C@@H](Cc2ccccc2)C(=O)N2CCC[C@@H]2C(=O)N[C@@H](CCCCCC(=O)[C@@H]2CO2)C(=O)N[C@H]1Cc1ccccc1 [trapoxin B] (cyclo(FF[dP][Aoe])) | not | not | did not affect |  |  |  |  |  | 
